Data from publication PMC12152883, “Bile acids inhibit equilibrative adenosine transport to alter adenosine receptor signaling in cholestasis” (The Journal of Biological Chemistry, 2025).
Where “and” joins values, the source holds several entries; their conditions need not be identical. Identical values can stand only once.

What was measured:
ENT1 = biological target: T1, ENT1 (Homo sapiens, UniProt Q99808); assay: Radiolabeled BA transport in ENT1 mRNA-injected Xenopus oocytes; assay type: cell-based; details: 3H-labelled BA, Na+-containing buffer, pH 7.4
T1 construct: The complete ORF of ENT1 (amplified using forward primer); expressed in transfected cells; host or cells: Xenopus laevis oocytes injected with in vitro-transcribed capped mRNA from pOX-hENT1
T1 sequence (Q99808 1-456): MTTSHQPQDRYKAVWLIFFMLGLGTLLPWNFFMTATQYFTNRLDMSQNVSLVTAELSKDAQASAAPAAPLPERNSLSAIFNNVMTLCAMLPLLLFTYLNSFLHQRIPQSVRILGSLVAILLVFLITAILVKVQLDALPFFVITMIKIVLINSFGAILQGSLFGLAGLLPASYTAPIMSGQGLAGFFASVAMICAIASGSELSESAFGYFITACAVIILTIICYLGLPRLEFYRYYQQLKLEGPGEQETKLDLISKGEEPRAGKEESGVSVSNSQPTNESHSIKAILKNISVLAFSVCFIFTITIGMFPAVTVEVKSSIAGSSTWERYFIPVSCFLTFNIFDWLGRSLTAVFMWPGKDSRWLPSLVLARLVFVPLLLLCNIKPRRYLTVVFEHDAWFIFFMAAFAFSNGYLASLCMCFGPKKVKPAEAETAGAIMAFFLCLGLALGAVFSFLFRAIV
Description: We used a Xenopus oocyte-based transport assay that was previously used to examine BA transport by plasma membrane–directed ENT3 with a truncated N-terminus (that harbors lysosomal targeting motif) to experimentally verify whether ENT2 is capable of translocating BAs across the cell membrane ([24]). We tested both ENT1 and ENT2 along with CNT2, a purine nucleoside-specific concentrative transporter, to investigate their capacities to transport radiolabeled BAs. […] Transport was measured at pH 7.4, which is the closest pH to the pH of the extracellular fluid in which cells are exposed to solutes such as BAs to conduct plasma membrane transport ([29]).
The generated pOX expression constructs were linearized with either the Not1 or Sac1 restriction enzymes. The digested products were purified via phenol‒chloroform extraction. The mRNAs were synthesized using mMESSAGE mMACHINE (Ambion) transcription kits according to the manufacturer’s instructions. The mRNAs were purified via lithium precipitation. Oocytes were procured from Ecocyte. Prior to experiments, procured oocytes were defolliculated by treating with collagenase A-OR II solution followed by washing with Barth’s solution. Following microscopic verification, selected oocytes were incubated to recover overnight at 25 °C in a shaker incubator. Fifty nanoliters (400–800 ng/μl) of equal amounts of mRNAs were injected into defolliculated oocytes the next day. Expression of plasmids was analyzed after RNA isolation from oocyte extracts and conducting qPCR analysis with gene-specific primers as described earlier ([30]). The injected oocytes were incubated at 15 °C for 24 h before transport assays were performed. The uptake of radiolabeled substrates was measured after a 30 min incubation in transport buffer (100 mM NaCl, 2 mM KCl, 1 mM CaCl2, 1 mM MgCl2, and 10 mM Hepes, pH 7.4) at room temperature. […] Individual oocytes were shaken overnight in 10% SDS for complete dissolution, and then the radioactivity was quantified with a Beckman liquid scintillation counter. […]

HeLa cell line = assay: 3H-nucleoside uptake inhibition by BAs in HeLa cell line; assay type: cell-based; details: BA 100 μM; for % Inhibition of Ado uptake, HeLa cell line, Sodium buffer / % Inhibition of Ado uptake, HeLa cell line, Sodium-free buffer: 3H-Ado 0.02 μM; for extent of inhibition of guanosine transport, HeLa cells: 3H-guanosine 0.02 μM, Na+-free
Description: The bars represent the mean ± SD (n = 3). A representative experiment from 3 to 5 independent experiments is presented. Statistical analysis was performed using one-way ANOVA with Dunnett’s multiple comparisons test; ∗p < 0.032, ∗∗p < 0.0021, ∗∗∗p < 0.0002.
HeLa (CCL-2) and HepG2 (HB_8065) were procured from ATCC. Both cell lines were cultured in Eagle's minimum essential medium and Dulbecco's modified Eagle's medium, respectively, supplemented with 10% fetal bovine serum and penicillin-streptomycin (1X). After cells were tested free for mycoplasma contamination, they were plated in 24-well plates, and transport assays were conducted when the cells were 80% confluent. The cells were briefly rinsed with PBS, and then the uptake of radiolabeled substrates was measured after a 5 min incubation in sodium containing (130 mM NaCl, 20 mM Tris–HCl, 3 mM K2HPO4, 1 mM MgCl2.6H2O, 2 mM CaCl2, 5 mM glucose, pH 7.4) or sodium-free (130 mM N-methyl-D-glucamin, 20 mM Tris–HCl, 3 mM K2HPO4, 1 mM MgCl2.6H2O, 2 mM CaCl2, 5 mM glucose, pH 7.4) transport buffers at 37 °C. Uptake was terminated by washing the cells three times with ice-cold arrest buffer containing 20 mM uridine. The cells were shaken for 30 min in 10% SDS for complete dissolution, after which the radioactivity was quantified with a Beckman liquid scintillation counter. The data are presented as the mean ± SD (n = 3).

## C[C@H](CCC(=O)O)[C@H]1CC[C@H]2[C@@H]3[C@H](O)C[C@@H]4C[C@H](O)CC[C@]4(C)[C@H]3C[C@H](O)[C@]12C [CA, cholic acid]
ENT1
  transport of BA by ENT1: incapable of transporting
HeLa cell line
  % Inhibition of Ado uptake, HeLa cell line, Sodium buffer: 52.17 ± 0.51%
  % Inhibition of Ado uptake, HeLa cell line, Sodium-free buffer: 48.8% and 48.78 ± 0.52%
  extent of inhibition of guanosine transport, HeLa cells: 16.1%

## C[C@H](CCC(=O)O)[C@H]1CC[C@H]2[C@@H]3CC[C@@H]4C[C@H](O)CC[C@]4(C)[C@H]3C[C@H](O)[C@]12C [DCA, deoxycholic acid]
ENT1
  transport of BA by ENT1: incapable of transporting
HeLa cell line
  % Inhibition of Ado uptake, HeLa cell line, Sodium buffer: 41.33 ± 0.10%
  % Inhibition of Ado uptake, HeLa cell line, Sodium-free buffer: 67.86 ± 1.67%
  extent of inhibition of guanosine transport, HeLa cells: 0%

## C[C@H](CCC(=O)NCCS(=O)(=O)O)[C@H]1CC[C@H]2[C@@H]3[C@H](O)C[C@@H]4C[C@H](O)CC[C@]4(C)[C@H]3C[C@H](O)[C@]12C [TCA, taurocholic acid]
ENT1
  transport of BA by ENT1: incapable of transporting
HeLa cell line
  % Inhibition of Ado uptake, HeLa cell line, Sodium buffer: 59.20 ± 0.31%
  % Inhibition of Ado uptake, HeLa cell line, Sodium-free buffer: 67.21 ± 0.08%
  extent of inhibition of guanosine transport, HeLa cells: 0%
